The numbers were not newly measured in patent publication US20230305023A1, “METHODS OF TREATMENT AND DIAGNOSTIC OF PATHOLOGICAL CONDITIONS ASSOCIATED WITH INTENSE STRESS” (INSERM (INSTITUT NATIONAL DE LA SANTÉ ET DE LA RECHERCHE …, priority 2020, published 2023), which cites them from elsewhere.

One data set deals with T1, mouse PAI-1 (Mus musculus, UniProt P22777).
T1 sequence (P22777 23-402): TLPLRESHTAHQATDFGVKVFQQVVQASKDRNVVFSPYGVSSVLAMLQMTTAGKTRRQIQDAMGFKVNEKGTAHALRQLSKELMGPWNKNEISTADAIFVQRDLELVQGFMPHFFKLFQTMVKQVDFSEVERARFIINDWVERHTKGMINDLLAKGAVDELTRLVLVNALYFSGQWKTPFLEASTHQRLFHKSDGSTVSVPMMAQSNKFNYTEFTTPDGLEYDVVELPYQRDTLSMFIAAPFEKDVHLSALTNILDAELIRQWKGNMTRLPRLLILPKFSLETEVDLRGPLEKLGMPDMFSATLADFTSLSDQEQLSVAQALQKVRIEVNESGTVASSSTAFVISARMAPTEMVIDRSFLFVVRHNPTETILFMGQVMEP
To be noted: cited from earlier work.

A further data set concerns the target T2, rat PAI-1 (Rattus norvegicus, UniProt P20961).
T2 sequence (P20961 24-402): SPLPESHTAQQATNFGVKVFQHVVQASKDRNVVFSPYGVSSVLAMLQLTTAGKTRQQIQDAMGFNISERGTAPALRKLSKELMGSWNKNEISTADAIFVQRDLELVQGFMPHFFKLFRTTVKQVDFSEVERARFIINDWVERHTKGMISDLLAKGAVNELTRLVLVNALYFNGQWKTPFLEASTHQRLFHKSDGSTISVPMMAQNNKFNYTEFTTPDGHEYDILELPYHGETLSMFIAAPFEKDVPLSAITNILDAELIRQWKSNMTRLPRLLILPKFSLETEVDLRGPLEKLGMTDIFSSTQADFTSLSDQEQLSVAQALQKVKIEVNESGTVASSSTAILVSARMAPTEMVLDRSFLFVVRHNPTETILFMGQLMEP
To be noted: cited from earlier work.

For data set [1], the system named is rat. As to conditions: cited from earlier work.
Data set [2] relates to rat. To be noted: in vivo; cited from earlier work.
In data set [3] the test system is plasminogen activator inhibitor type 1 (PAI-1). To be noted: in vivo; cited from earlier work.

As for `O=C1S/C(=C\c2cc(O)c(O)c(O)c2)C(=O)N1Cc1ccc(Cl)c(Cl)c1` [IMD-1622, 3-(3,4-dichlorobenzyl)-5-(3,4,5-trihydroxy-benzylidene)-thiazolidine-2,4-dione], the “activity of mouse PAI-1” value at mouse PAI-1 is “inhibit”. Moreover, the “activity of rat PAI-1” value at rat PAI-1 is “inhibit”. Also, the thrombus weight result with rat [1] (compared to control) is “decreased”. The intimal thickening entry in the data set with rat [1] (rat, in vivo) is “suppressed”. Moreover, the rat autoimmune myocarditis result with rat [2] is “suppresses”.
As to Defibrotide, in data set [3], the “circulating levels of plasminogen activator inhibitor type 1 (PAI-1)” value is on record as “reduces”.
